Test results: ChEMBL document CHEMBL3997813, “Selective inhibition of monoamine oxidase A by purpurin, an anthraquinone” (Bioorg Med Chem Lett, 2017); call rule not given here
Each block holds one compound with its values, some of them ahead of it.

Columns and labels:
[1] = molecular target: T1, Amine oxidase [flavin-containing] A (Homo sapiens, UniProt P21397); assay: Competitive inhibition of recombinant human MAO-A using varying levels of kynuramine substrate after 5 mins by Lineweaver-Burk plot analysis
T1 sequence (P21397 whole entry): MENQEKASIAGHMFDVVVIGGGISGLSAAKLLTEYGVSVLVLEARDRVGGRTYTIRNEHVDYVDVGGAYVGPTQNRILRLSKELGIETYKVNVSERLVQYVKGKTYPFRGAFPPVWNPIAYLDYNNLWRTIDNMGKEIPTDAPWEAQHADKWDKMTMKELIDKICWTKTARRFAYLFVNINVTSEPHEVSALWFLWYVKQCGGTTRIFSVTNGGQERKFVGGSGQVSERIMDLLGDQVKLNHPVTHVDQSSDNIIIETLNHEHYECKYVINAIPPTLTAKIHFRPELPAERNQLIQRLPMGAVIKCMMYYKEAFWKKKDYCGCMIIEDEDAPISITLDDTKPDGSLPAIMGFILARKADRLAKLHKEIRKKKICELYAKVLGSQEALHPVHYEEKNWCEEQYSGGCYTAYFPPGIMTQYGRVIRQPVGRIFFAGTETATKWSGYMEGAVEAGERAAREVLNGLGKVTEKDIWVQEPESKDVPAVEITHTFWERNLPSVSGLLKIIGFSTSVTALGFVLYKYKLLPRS

[2] = molecular target: T1, Amine oxidase [flavin-containing] A; assay: Inhibition of recombinant human liver MAO-A expressed in yeast using kynuramine as substrate preincubated for 3 mins followed by substrate addition by double reciprocal plot analysis
[3] = molecular target: T2, Amine oxidase [flavin-containing] B (Homo sapiens, UniProt P27338); assay: Inhibition of recombinant human MAO-B using benzylamine as substrate preincubated for 15 mins
T2 sequence (P27338 whole entry): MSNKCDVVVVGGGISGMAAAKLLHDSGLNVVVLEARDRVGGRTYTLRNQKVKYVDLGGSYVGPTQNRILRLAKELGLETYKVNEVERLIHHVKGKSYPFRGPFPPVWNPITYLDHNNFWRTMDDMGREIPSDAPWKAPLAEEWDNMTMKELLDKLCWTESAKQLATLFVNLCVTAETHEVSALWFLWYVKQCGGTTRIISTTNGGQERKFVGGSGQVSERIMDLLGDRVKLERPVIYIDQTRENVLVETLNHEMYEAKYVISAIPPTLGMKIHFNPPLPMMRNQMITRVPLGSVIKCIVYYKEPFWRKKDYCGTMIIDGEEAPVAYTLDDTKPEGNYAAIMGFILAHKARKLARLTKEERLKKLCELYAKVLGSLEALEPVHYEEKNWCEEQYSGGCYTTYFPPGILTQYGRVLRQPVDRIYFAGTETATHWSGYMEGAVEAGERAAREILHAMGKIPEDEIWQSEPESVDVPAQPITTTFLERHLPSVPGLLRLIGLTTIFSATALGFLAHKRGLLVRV

[4] = molecular target: T1, Amine oxidase [flavin-containing] A; assay: Inhibition of recombinant human MAO-A using kynuramine as substrate incubated for 10 mins
[5] = molecular target: T1, Amine oxidase [flavin-containing] A; assay: Irreversible inhibition of recombinant human MAO-A using kynuramine as substrate assessed as residual activity at 100 times IC50 preincubated for 10 mins followed by 100 times compound dilution
[6] = molecular target: T1, Amine oxidase [flavin-containing] A; assay: Inhibition of recombinant human MAO-A assessed as residual activity at 5 uM using 0.2 mM kynuramine as substrate incubated for 10 mins; conditions: read-out: Activity
[7] = molecular target: T1, Amine oxidase [flavin-containing] A; assay: Inhibition of recombinant human MAO-A assessed as residual activity at 5 uM using 0.4 mM of kynuramine as substrate after 10 mins; conditions: read-out: Activity
[8] = molecular target: T1, Amine oxidase [flavin-containing] A; assay: Reversible inhibition of recombinant human MAO-A assessed as residual activity at 5 uM preincubated for 10 mins in presence of kynuramine substrate followed by re-addition of 0.2 mM of substrate measured after 10 mins; conditions: read-out: Activity
[9] = molecular target: T1, Amine oxidase [flavin-containing] A; assay: Time-dependent inhibition of recombinant human MAO-A preincubated up to 30 mins followed by addition of 0.2 mM of kynuramine as substrate
[10] = molecular target: T2, Amine oxidase [flavin-containing] B; assay: Inhibition of recombinant human MAO-B using benzylamine as substrate at 40 uM after 15 mins relative to control; conditions: 0.25 h
[11] = molecular target: T1, Amine oxidase [flavin-containing] A; assay: Reversible inhibition of recombinant human MAO-A using kynuramine as substrate assessed as residual activity at 100 times IC50 preincubated for 10 mins followed by 100 times compound dilution
[12] = molecular target: T1, Amine oxidase [flavin-containing] A; assay: Competitive inhibition of recombinant human MAO-A using 0.01 to 0.5 mM kynuramine substrate by Lineweaver-Burk plot analysis

- IC50 [3]: > 60 µM
- IC50 [4]: 30.1 µM
SMILES: O=C1c2ccccc2C(=O)c2c1ccc(O)c2O [ATHRAQUINONES A]

- activity at 5 µM [6]: 36.6%
- IC50 [3]: > 40 µM
- IC50 [4]: 2.5 µM
- activity at 5 µM [7]: 54.4%
- activity at 5 µM [8]: 55.2%
- TDI [9]: Active
- inhibition at 40 µM [10]: 23.3%
- Activity [11]: 63.9 to 67.2%
- Ki [12]: 0.422 µM
SMILES: O=C1c2ccccc2C(=O)c2c(O)c(O)cc(O)c21 [PURPURIN]

The next lines start with the compound.

SMILES: CNc1ccccc1-c1nc(C(=O)OC)cs1
- Ki [1]: 1.84 µM

SMILES: Cn1ccc2c3ccccc3nc-2c1
- Ki [2]: 1.43 µM

SMILES: C#CCN(C)CCCOc1ccc(Cl)cc1Cl [CLORGILINE]
- Activity [5]: 24.9 to 47.9%
